Laboratory results reported in patent publication EP1028947B1, “H3 RECEPTOR LIGANDS OF THE PHENYL-ALKYL-[…]” (SCHERING CORPORATION, priority 1997, dated 1999).

Columns and labels:
H3 receptors = molecular target: T1, H3 receptors (Cavia porcellus, UniProt Q9JI35); assay: H3-Receptor Binding Assay; details: guinea pig brain membranes; 3 nM [3H]R-a-methylhistamine or 3 nM [3H]Na-methylhistamine; 30°C for 30 min; HCl salt of the compound
T1 construct: The source of the H3 receptors in this experiment was guinea pig brain; from tissue; host or cells: guinea pig brain membranes
Procedure: H3-Receptor Binding Assay
The source of the H3 receptors in this experiment was guinea pig brain. The animals weighed 400-600 g. The brain tissue was homogenized using a Polytron in a solution of 50 mM Tris, pH 7.5. The final concentration of tissue in the homogenization buffer was 10% w/v. The homogenates were centrifuged at 1,000 x g for 10 min. in order to remove clumps of tissue and debris. The resulting supematants were then centrifuged at 50,000 x g for 20 min. in order to sediment the membranes, which were next washed three times in homogenization buffer (50,000 x g for 20 min. each). The membranes were frozen and stored at -70°C until needed.
The compound to be tested was dissolved in DMSO and then diluted into the binding buffer (50 mM Tris, pH 7.5) such that the final concentration was 2 µg/ml with 0.1% DMSO. Membranes were then added (400 µg of protein) to the reaction tubes. The reaction was started by the addition of 3 nM [^3H]R-a-methylhistamine (8.8 Ci/mmol) or 3 nM [^3H]N^a-methylhistamine (80 Ci/mmol) and continued under incubation at 30°C for 30 min. Bound ligand was separated from unbound ligand by filtration, and the amount of radioactive ligand bound to the membranes was quantitated by liquid scintillation spectrometry. All incubations were performed in duplicate and the standard error was always less than 10%. The Compound was serially diluted to determine a Ki (nM). […]

[1] = Blood levels of the compound (no method described); format: in vivo; details: compared with the preferred compounds of WO 95/14007; statement in words, no data

T1 sequence (Q9JI35 whole entry): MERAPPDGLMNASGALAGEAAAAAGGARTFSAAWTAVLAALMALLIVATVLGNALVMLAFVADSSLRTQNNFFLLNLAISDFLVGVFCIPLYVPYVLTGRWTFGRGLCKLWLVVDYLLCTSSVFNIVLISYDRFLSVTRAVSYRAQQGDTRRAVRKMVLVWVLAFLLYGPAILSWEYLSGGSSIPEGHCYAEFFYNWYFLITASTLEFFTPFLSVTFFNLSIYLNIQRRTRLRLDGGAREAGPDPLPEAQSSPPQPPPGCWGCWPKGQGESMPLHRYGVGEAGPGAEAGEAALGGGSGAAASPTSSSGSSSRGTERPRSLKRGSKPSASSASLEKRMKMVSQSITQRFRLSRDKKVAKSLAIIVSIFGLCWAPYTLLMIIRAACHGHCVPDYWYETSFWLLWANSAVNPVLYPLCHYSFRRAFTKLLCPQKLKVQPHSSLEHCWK

For O=C(NCc1ccc(Cc2c[nH]cn2)cc1)Nc1cc(Cl)cc(Cl)c1 [compound of the present invention], the Ki (H3 receptors) was 4 nM and the “blood levels of the compound” value [1] was “higher blood levels”.
